From patent US20240366624A1, “METHODS AND COMPOSITIONS FOR TREATING THROMBOTIC DISEASE” (Washington University, priority 2023, published 2024)
Entries after “also recorded” stand apart in the source; their conditions may differ.

How the values were obtained:
[1] = thiol-reacting (GSH) activity assay; format: biochemical
Source text: FIG. 17(A-F) is an exemplary embodiment of identification of novel ERO1α inhibitors by high throughput screening in accordance with the present disclosure. FIG. 17A: A scheme of an ERO1α activity assay. FIG. 17B: Screening of chemical libraries in the ERO1α activity assay. FIG. 17C: The inhibitory effect of selected compounds on ERO1α activity. FIG. 17D: The inhibitory effect of selected compounds on PDI activity. FIG. 17E: The inhibitory effect of selected compounds on H2O2 activity. FIG. 17F: The inhibitory effect of selected compounds on thiol-reacting activity. The data represent the mean±SD (n=3). *P<0.05, **P<0.01, ***P<0.001, and ****P<0.0001 vs. vehicle control, Student's t-test.
To identify a novel ERO1α inhibitor, 5800 compounds were screened using an ERO1α activity assay (FIG. 17A and FIG. 17B). […] The selected compounds were further tested in assays measuring PDI, antioxidant, and thiol-reacting activities (FIG. 17D through FIG. 17F). […] B12 inhibited P-selectin exposure and αIIbβ3 activation in agonist-activated mouse and human platelets in a concentration-dependent manner (FIG. 18B through FIG. 18E).

WT mice = assay: FeCl3-induced carotid arterial thrombosis; format: in vivo, mouse
Method: FIG. […]) is an exemplary embodiment of B12-5 having an antithrombotic effect without prolonging tail bleeding times in mice in accordance with the present disclosure. FIG. […]): Ex vivo effects of B12-5. Wild type (WT; […] One hour later, blood was drawn, followed by isolating platelets. P-selectin exposure (FIG. 19A) and αIIbβ3 integrin activation (FIG. 19B) were assessed in flow cytometry. FIG. 19C: Platelet aggregation was measured after treatment with 0.025 U/mL thrombin. The data represent the mean±SD (n=4). FIG. 19D: The plasma levels of B12-5 were analyzed by liquid chromatography-tandem mass spectrometry (LC-MS/MS) after intravenous injection of the compound (5 μg/g BW) into WT mice and quantified by comparison with a standard curve of B12-5 (mean±SD, n=3). FIG. 19E and FIG. 19F: After laser-induced cremaster arteriolar injury, intravital microscopy was conducted with WT mice pretreated with intravenous injection of saline, eptifibatide (5 μg/g BW), vehicle, or B12-5 (5 μg/g BW). The median integrated fluorescence intensities of anti-CD42c (F platelet) and anti-fibrin (F fibrin) antibodies (n=37-42 arterioles in 6 mice per group). Quantification of the antibody signal at a different time point after laser injury. FIG. 19G: Comparison of B12-5 (5 μg/g BW) with eptifibatide (5 μg/g BW) and their respective controls in inhibiting FeCl3-induced carotid artery thrombosis in WT mice. FIG. 19H and FIG. 19I: WT mice were treated with intravenous injection of vehicle control, eptifibatide (5 μg/g BW), or B12-5 (5 μg/g BW). Thirty minutes later, tail bleeding times and Hb contents were measured after amputation of the tail tip. […] Twenty-three hours later, neurological deficits were assessed by the Bederson score and grip test, and infarct volume was measured as described in Methods. […] Twenty-three hours later, the neurological deficit and infarct volume were measured as described above. […] P values determined by unpaired Student t test (FIG. […]), FIG. 19K, and FIG. 19O) or Mann-Whitney U test (FIG. 19(E-1), FIG. 19L, FIG. 19M, FIG. 19P, and FIG. 19Q). […]

[2] = from studies; cited from earlier work

Structure (SMILES)	GSH inhibition at 100 μM (%) ([1]; 100 μM)	effect on thiol-reacting activity ([1]; at or up to 100 μM)	time to occlusion (WT mice; 5 μg/g BW, vs vehicle control)	platelet thrombus formation (WT mice; iv 5 microg/g mouse)	thiol-reacting activity [2]
O=C(CSc1nc(O)cc(O)n1)N1c2ccccc2Sc2ccccc21 [B12-5]	9.7 ± 2	minimal effect; also recorded: did not affect	significantly prolonged	significantly reduced	
O=C(O)c1cc(N2N=C(C(F)(F)F)/C(=C/c3ccc(-c4ccccc4)o3)C2=O)ccc1Cl [EN460]					has thiol-reacting activity
